Here are results for one compound from US11572590B2, “Methods for evaluating tumor cell spheroids using 3D microfluidic cell culture device” (Dana-Farber Cancer Institute, Inc., priority 2017, dated 2023).

What all share (assay): SelectScreen Kinase Profiling, single point inhibition and IC50 for off-target kinases
Assay type in all cases: biochemical

Test [1] deals with off-target kinases (Homo sapiens, UniProt P16234, D842V). The following applies: PDGFRA D842V, ATP Km app, ZLYTE.
Test [2] concerns the target T1, off-target kinases (Homo sapiens, UniProt O95835).
T1 sequence (O95835 1-1130): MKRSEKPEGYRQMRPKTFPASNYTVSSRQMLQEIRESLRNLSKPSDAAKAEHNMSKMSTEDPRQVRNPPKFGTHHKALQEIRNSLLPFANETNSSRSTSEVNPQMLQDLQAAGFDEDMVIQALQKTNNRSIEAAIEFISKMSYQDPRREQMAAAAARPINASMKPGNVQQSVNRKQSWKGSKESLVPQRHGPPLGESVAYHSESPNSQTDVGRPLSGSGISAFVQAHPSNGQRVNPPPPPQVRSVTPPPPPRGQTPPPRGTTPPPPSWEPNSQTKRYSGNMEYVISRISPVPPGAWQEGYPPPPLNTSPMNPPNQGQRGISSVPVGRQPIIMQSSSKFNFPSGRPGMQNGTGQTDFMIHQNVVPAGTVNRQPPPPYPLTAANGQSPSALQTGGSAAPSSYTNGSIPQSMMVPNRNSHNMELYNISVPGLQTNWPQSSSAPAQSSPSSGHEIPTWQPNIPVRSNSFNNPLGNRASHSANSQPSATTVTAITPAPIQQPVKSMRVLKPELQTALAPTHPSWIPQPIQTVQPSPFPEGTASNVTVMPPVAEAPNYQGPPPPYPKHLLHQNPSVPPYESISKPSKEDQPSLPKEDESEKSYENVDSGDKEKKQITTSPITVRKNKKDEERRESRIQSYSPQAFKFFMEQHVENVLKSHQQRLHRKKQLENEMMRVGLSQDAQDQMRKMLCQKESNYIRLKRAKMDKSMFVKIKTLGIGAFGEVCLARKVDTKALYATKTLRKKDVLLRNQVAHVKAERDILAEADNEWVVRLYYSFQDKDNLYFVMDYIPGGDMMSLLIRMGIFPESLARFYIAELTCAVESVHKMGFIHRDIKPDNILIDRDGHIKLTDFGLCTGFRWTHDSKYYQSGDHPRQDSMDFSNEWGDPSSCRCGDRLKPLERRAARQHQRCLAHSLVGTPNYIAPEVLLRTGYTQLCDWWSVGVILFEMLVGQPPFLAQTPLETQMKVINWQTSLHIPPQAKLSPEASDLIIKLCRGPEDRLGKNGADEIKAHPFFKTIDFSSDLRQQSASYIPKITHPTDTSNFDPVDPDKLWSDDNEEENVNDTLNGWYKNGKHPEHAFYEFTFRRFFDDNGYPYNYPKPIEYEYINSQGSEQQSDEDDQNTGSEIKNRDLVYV
The following applies: LATS1, LanthaScreen Binding.

In test [3] the target is off-target kinases (Homo sapiens, UniProt Q8NEB9). The following applies: PIK3C3 (hVPS34); Cmpd1 1000 μM; ATP Km app; Adapta.
In test [4] the target is off-target kinases (Homo sapiens, UniProt P10721, D816V). The following applies: KIT D816V, LanthaScreen Binding.

Read-outs that look alike come from different tables or passages of the source.

Chain of off-target kinases (Homo sapiens, UniProt Q8NEB9) (Q8NEB9 whole entry): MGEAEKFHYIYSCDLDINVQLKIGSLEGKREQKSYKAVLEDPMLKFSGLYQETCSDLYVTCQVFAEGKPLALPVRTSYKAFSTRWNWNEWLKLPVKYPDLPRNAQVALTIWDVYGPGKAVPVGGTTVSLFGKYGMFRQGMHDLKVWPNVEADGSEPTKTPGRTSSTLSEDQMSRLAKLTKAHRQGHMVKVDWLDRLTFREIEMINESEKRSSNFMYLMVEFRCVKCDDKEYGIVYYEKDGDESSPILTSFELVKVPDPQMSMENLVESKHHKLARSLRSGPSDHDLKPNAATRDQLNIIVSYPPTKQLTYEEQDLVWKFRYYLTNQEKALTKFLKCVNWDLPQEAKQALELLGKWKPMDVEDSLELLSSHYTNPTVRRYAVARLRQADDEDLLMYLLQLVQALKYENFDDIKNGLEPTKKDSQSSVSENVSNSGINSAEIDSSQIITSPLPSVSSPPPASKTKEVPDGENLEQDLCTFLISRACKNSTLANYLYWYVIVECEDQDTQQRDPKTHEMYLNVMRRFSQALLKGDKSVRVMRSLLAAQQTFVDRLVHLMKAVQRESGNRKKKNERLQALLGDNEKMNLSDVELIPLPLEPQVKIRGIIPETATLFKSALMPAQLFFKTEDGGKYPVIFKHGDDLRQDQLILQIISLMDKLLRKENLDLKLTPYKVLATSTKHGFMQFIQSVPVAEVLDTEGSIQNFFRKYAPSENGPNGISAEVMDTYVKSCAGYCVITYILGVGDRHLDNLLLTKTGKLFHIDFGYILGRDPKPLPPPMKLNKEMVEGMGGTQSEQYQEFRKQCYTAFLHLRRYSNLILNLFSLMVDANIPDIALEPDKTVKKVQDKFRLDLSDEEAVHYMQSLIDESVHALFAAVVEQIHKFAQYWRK
Chain of off-target kinases (Homo sapiens, UniProt P16234, D842V) (P16234 24-1089 D842V): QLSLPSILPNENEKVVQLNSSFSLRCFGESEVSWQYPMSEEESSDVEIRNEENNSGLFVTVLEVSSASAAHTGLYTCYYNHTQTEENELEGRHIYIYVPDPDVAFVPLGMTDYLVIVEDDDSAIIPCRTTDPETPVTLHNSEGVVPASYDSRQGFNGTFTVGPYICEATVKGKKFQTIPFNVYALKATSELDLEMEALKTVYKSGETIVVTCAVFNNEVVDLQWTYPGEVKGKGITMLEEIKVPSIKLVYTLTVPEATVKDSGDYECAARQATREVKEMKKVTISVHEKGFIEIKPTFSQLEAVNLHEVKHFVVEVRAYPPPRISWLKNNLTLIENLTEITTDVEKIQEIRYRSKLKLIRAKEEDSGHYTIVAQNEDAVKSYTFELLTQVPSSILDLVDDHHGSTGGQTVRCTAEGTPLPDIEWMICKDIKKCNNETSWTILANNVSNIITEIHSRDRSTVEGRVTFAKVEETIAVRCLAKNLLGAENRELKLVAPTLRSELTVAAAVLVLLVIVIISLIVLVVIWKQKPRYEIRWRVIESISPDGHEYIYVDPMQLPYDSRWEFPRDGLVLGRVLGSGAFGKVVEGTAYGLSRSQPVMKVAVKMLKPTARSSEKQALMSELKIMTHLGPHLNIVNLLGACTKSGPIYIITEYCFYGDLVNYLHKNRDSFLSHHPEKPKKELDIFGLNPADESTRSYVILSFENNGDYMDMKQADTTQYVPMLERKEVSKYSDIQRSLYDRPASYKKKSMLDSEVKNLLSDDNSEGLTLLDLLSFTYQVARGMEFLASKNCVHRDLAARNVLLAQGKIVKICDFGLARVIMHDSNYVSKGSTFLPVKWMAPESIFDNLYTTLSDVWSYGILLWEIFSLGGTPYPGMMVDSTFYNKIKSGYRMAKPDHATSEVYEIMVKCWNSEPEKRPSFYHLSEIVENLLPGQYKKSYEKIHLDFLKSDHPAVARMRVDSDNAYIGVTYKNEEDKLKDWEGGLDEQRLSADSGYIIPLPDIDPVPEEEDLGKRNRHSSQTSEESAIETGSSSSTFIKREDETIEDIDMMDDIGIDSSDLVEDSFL
Chain of off-target kinases (Homo sapiens, UniProt P10721, D816V) (P10721 26-976 D816V): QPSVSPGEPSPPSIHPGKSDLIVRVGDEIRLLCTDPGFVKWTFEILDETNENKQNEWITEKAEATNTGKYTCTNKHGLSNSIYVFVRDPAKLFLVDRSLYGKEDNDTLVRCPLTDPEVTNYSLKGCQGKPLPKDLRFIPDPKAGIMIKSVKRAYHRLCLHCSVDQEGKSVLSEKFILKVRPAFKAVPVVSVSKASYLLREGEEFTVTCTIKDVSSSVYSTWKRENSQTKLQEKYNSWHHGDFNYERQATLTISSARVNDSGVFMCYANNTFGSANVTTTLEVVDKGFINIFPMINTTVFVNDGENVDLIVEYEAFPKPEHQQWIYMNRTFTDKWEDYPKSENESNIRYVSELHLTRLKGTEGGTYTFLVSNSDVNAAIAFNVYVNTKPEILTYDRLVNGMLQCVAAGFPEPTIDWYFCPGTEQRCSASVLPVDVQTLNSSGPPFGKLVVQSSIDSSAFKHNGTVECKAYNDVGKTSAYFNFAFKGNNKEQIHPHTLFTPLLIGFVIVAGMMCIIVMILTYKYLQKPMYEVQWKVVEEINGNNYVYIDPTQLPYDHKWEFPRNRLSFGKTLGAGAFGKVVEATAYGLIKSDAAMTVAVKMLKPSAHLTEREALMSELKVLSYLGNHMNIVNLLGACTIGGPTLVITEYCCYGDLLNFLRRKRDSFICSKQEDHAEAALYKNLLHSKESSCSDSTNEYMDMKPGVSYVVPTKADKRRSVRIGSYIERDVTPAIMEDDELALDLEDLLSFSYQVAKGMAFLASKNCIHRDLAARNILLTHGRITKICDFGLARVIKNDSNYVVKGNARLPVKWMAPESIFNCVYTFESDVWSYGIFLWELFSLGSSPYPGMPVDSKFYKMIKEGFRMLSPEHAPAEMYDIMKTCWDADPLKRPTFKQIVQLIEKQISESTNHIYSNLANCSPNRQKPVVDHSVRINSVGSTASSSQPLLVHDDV

Consider `N#Cc1cc(-c2ncnc(Nc3ccc(N4CCN(C5COC5)CC4)cc3)n2)ccc1OC1CCOCC1` [Compound 1, 5-(4-((4-(4-(oxetan-3-yl)piperazin-1-yl)phenyl)amino)-1,3,5-triazin-2-yl)-2-((tetrahydro-2H-pyran-4-yl)oxy)benzonitrile], for which the inhibition on off-target kinases [1] (read-out: % Inhibition 1) was 77%; on off-target kinases [1] (read-out: % Inhibition 2) it was 73%; on off-target kinases [1] (read-out: % Inhibition Avg), 75%; on off-target kinases [2] (read-out: % Inhibition 1) it was -5%; on off-target kinases [2] (read-out: % Inhibition 2) it was 1%; on off-target kinases [2] (read-out: % Inhibition Avg), -2%. Also, the inhibition on off-target kinases [4] (read-out: % Inhibition 1), on off-target kinases [4] (read-out: % Inhibition 2) and on off-target kinases [4] (read-out: % Inhibition Avg) was 83% in each case. In addition, the “% Inhibition 1” value at off-target kinases [3] was −5%. In addition, the “% Inhibition 2” value at off-target kinases [3] is −9%. The “% Inhibition Avg” value on off-target kinases [3] is −7%.
